Test results reported in patent US6355799B1, “Substituted benzene compounds, process for their preparation, and herbicidal and defoliant compositions containing them” (ISK Americas Incorporated, priority 1997, dated 2002).

How the values were obtained:
Format in all cases: in vivo
[1] = tested on: redroot pigweed (Amaranthus retroflexus, AMARE); experiment: Pre-emerge test, greenhouse herbicide activity screening
Outline: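 Plants grown in 10 cm pots of sandy loam mix received acetone-dissolved compounds through a moving flat-fan nozzle. Doses ranged from 15 to 1000 g ai/ha. Pre-emerge pots were seeded one day earlier, post-emerge pots 8–21 days earlier. Fourteen days on, each pot was graded 0–100 for damage.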

[2] = tested on: barnyardgrass (Echinochloa crus-galli, ECHCG); experiment: as above
Text: (§1) A standard greenhouse herbicide activity screening system was used to evaluate the herbicidal efficacy and crop safety of these test compounds. Seven broadleaf weed species including redroot pigweed (Amaranthus retroflexus, AMARE, velvetleaf (Abutilon theophrasti, ABUTH), sicklepod (Cassia obtusifolia, CASOB), ivyleaf morningglory (Ipomoea hederacea, IPOHE), lambsquarters (Chenopodium album, CHEAL), common ragweed (Ambrosia artemisizfolia L., AMBEL), and cocklebur (Xanthium strumarium, XANST) were used as test species. Four grass weed species including green foxtail (Setaria viridis, SETVI), barnyardgrass (Echinochloa crus-galli, ECHCG), johnsongrass (Sorghum halepense, SORHA), and large crabgrass (Digitaria sanguinalis, DIGSA) were also used. In addition, three crop species, field corn (Zea mays L., var. Dekalb 535, CORN), soybean (Glycine max L., var. Pella 86, SOY), and is upland rice (Oryza sp., var. Tebonnet, RICE) were included.
(§2) All plants were grown in 10 cm square plastic pots which were filled with a sandy loam soil mix. For pre-emerge tests, seeds were planted one day prior to application of the test compounds. For post-emerge tests, seeds were planted 8-21 days prior to the test to allow emergence and good foliage development prior to application of the test substances. At the time of the post-emerge application, plants of all species were usually at the 2-3 leaf stage of development.
(§3) All test compounds Were dissolved in acetone and applied to the test units in a volume of 187 l /ha. Test materials were applied at rates ranging from 15 g ai/ha to 1000 g ai/ha using a track sprayer equipped with a TJ8001E even flow flat fan spray nozzle. Plants were arranged on a shelf so that the top of the canopy (post-emerge) or top of the soil surface (pre-emerge) was 40-45 cm below the nozzle. Pressurized air was used to force the test solution through the nozzle as it was mechanically advanced (via electrically driven chain drive) over the top of all test plants/pots. This application simulates a typical commercial field herbicide application.
(§4) In the post-emerge test, a commercial non-ionic surfactant was also included (0.25% v/v) to enhance wetting of the leaf surfaces of target plants. Immediately after application, test units of the pre-emerge applications were watered at the soil surface to incorporate the test materials. Subsequently, these test units were bottom-watered. Post-emerge test units were always bottom-watered.
(§5) At 14 days after application of the test materials, phytotoxicity ratings were recorded. A rating scale of 0-100 was used as previously described in Research Methods in Weed Science, 2nd edition, B. Truelove, Ed., Southern Weed Science Society, Auburn University, Auburn, Ala. 1977. Briefly, “0” corresponds to no damage and “100” corresponds to complete death of all plants in the test unit. This scale was used both to determine efficacy against weed species and damage to crop species. Herbicide activity data for various compounds of this invention, which are shown by compound No. in Tables 1-8, are shown in Tables 11 and 12.

[3] = tested on: green foxtail (Setaria viridis, SETVI); experiment: as above
Text: as §1, §2, §3, §4, §5

[4] = tested on: ivyleaf morningglory (Ipomoea hederacea, IPOHE); experiment: as above
Text: as §1, §2, §3, §4, §5

[5] = tested on: lambsquarters (Chenopodium album, CHEAL); experiment: as above
Text: as §1, §2, §3, §4, §5

[6] = tested on: large crabgrass (Digitaria sanguinalis, DIGSA); experiment: as above
Text: as §1, §2, §3, §4, §5

[7] = tested on: sicklepod (Cassia obtusifolia, CASOB); experiment: as above
Text: as §1, §2, §3, §4, §5

[8] = tested on: velvetleaf (Abutilon theophrasti, ABUTH); experiment: as above
Text: as §1, §2, §3, §4, §5

[9] = tested on: field corn (Zea mays L., var. Dekalb 535, CORN); experiment: Pre-emerge test, crop safety
Outline: (§6)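 Herbicidal damage is scored 0 (none) to 100 (complete plant death) two weeks after a simulated field spray. Rates span 15–1000 g ai/ha, delivered in acetone at 187 l/ha. For post-emergence treatments, plants have 2–3 leaves and the spray carries 0.25% v/v non-ionic surfactant.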

[10] = tested on: upland rice (Oryza sp., var. Tebonnet, RICE); experiment: Pre-emerge test, crop safety
Outline: as §6

[11] = tested on: barnyardgrass (Echinochloa crus-galli, ECHCG); experiment: Post-emerge test, greenhouse herbicide activity screening; conditions: post-emerge; for phytotoxicity rating ECHCG: 14 days after application, rating scale 0-100; for Post-emerge Herbicidal Activity ECHCG: phytotoxicity rating 0-100 at 14 days after application
Text: as §1, §2, §3, §4, §5

[12] = tested on: green foxtail (Setaria viridis, SETVI); experiment: as above; conditions: post-emerge; for phytotoxicity rating SETVI: 14 days after application, rating scale 0-100; for Post-emerge Herbicidal Activity SETVI: phytotoxicity rating 0-100 at 14 days after application
Text: as §1, §2, §3, §4, §5

[13] = tested on: ivyleaf morningglory (Ipomoea hederacea, IPOHE); experiment: as above; conditions: post-emerge; for phytotoxicity rating IPOHE: 14 days after application, rating scale 0-100; for Post-emerge Herbicidal Activity IPOHE: phytotoxicity rating 0-100 at 14 days after application
Text: as §1, §2, §3, §4, §5

[14] = tested on: lambsquarters (Chenopodium album, CHEAL); experiment: as above; conditions: post-emerge; for phytotoxicity rating CHEAL: 14 days after application, rating scale 0-100; for Post-emerge Herbicidal Activity CHEAL: phytotoxicity rating 0-100 at 14 days after application
Text: as §1, §2, §3, §4, §5

[15] = tested on: large crabgrass (Digitaria sanguinalis, DIGSA); experiment: as above; conditions: post-emerge; for phytotoxicity rating DIGSA: 14 days after application, rating scale 0-100; for Post-emerge Herbicidal Activity DIGSA: phytotoxicity rating 0-100 at 14 days after application
Text: as §1, §2, §3, §4, §5

[16] = tested on: redroot pigweed (Amaranthus retroflexus, AMARE); experiment: as above; conditions: post-emerge; for phytotoxicity rating AMARE: 14 days after application; for Post-emerge Herbicidal Activity AMARE: phytotoxicity rating 0-100 at 14 days after application
Text: as §1, §2, §3, §4, §5

[17] = tested on: sicklepod (Cassia obtusifolia, CASOB); experiment: as above; conditions: post-emerge; for phytotoxicity rating CASOB: 14 days after application, rating scale 0-100; for Post-emerge Herbicidal Activity CASOB: phytotoxicity rating 0-100 at 14 days after application
Text: as §1, §2, §3, §4, §5

[18] = tested on: velvetleaf (Abutilon theophrasti, ABUTH); experiment: as above; conditions: post-emerge; for phytotoxicity rating ABUTH: 14 days after application, rating scale 0-100; for Post-emerge Herbicidal Activity ABUTH: phytotoxicity rating 0-100 at 14 days after application
Text: as §1, §2, §3, §4, §5

[19] = tested on: field corn (Zea mays L., var. Dekalb 535, CORN); experiment: Post-emerge test, crop safety; conditions: post-emerge; for phytotoxicity rating CORN (crop damage): 14 days after application, rating scale 0-100; for Post-emerge Herbicidal Activity CORN: crop damage rating 0-100 at 14 days after application
Outline: (§7)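 Applied at 15–1000 g ai/ha from acetone in 187 l/ha spray volume. Post-emergence applications included 0.25% v/v non-ionic surfactant and reached plants sown 8–21 days before. Pre-emergence applications were incorporated by surface watering. Efficacy or crop damage was rated on a 0–100 scale after 14 days.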

[20] = tested on: upland rice (Oryza sp., var. Tebonnet, RICE); experiment: Post-emerge test, crop safety; conditions: post-emerge; for phytotoxicity rating RICE (crop damage): 14 days after application, rating scale 0-100; for Post-emerge Herbicidal Activity RICE: crop damage rating 0-100 at 14 days after application
Outline: as §7

[21] = 63 g ai/ha, phytotoxicity rating 0-100, 14 days after application
[22] = 250 g ai/ha, phytotoxicity rating 0-100, 14 days after application
[23] = 63 g ai/ha, crop damage rating 0-100, 14 days after application
[24] = 250 g ai/ha, crop damage rating 0-100, 14 days after application
[25] = pre-emerge, rate 63 g ai/ha, phytotoxicity rating 0-100 at 14 days after application
[26] = pre-emerge, rate 250 g ai/ha, phytotoxicity rating 0-100 at 14 days after application
[27] = crop damage, pre-emerge, rate 63 g ai/ha, phytotoxicity rating 0-100 at 14 days after application
[28] = crop damage, pre-emerge, rate 250 g ai/ha, phytotoxicity rating 0-100 at 14 days after application

SMILES: COc1c(Cl)cc(F)c(-n2c(=O)cc(C(F)(F)F)n(C)c2=O)c1NC(=O)OCc1cccc(F)c1 [4-44]
- Pre-emerge Herbicidal Activity AMARE [1, 21]: 100
- Pre-emerge Herbicidal Activity AMARE [1, 22]: 100
- Pre-emerge Herbicidal Activity ECHCG [2, 21]: 80
- Pre-emerge Herbicidal Activity ECHCG [2, 22]: 95
- Pre-emerge Herbicidal Activity SETVI [3, 21]: 100
- Pre-emerge Herbicidal Activity SETVI [3, 22]: 100
- Pre-emerge Herbicidal Activity IPOHE [4, 21]: 100
- Pre-emerge Herbicidal Activity IPOHE [4, 22]: 100
- Pre-emerge Herbicidal Activity CHEAL [5, 21]: 100
- Pre-emerge Herbicidal Activity CHEAL [5, 22]: 100
- Pre-emerge Herbicidal Activity DIGSA [6, 21]: 100
- Pre-emerge Herbicidal Activity DIGSA [6, 22]: 100
- Pre-emerge Herbicidal Activity CASOB [7, 21]: 100
- Pre-emerge Herbicidal Activity CASOB [7, 22]: 100
- Pre-emerge Herbicidal Activity ABUTH [8, 21]: 100
- Pre-emerge Herbicidal Activity ABUTH [8, 22]: 100
- Pre-emerge Herbicidal Activity CORN [9, 23]: 70
- Pre-emerge Herbicidal Activity CORN [9, 24]: 95
- Pre-emerge Herbicidal Activity RICE [10, 23]: 70
- Pre-emerge Herbicidal Activity RICE [10, 24]: 65
- phytotoxicity rating ECHCG ([11]; 63 g ai/ha): 70
- phytotoxicity rating ECHCG ([11]; 250 g ai/ha): 90
- phytotoxicity rating SETVI ([12]; 63 g ai/ha): 95
- phytotoxicity rating SETVI ([12]; 250 g ai/ha): 90
- phytotoxicity rating IPOHE ([13]; 63 g ai/ha): 100
- phytotoxicity rating IPOHE ([13]; 250 g ai/ha): 100
- phytotoxicity rating CHEAL ([14]; 63 g ai/ha): 100
- phytotoxicity rating CHEAL ([14]; 250 g ai/ha): 100
- phytotoxicity rating DIGSA ([15]; 63 g ai/ha): 70
- phytotoxicity rating DIGSA ([15]; 250 g ai/ha): 95
- phytotoxicity rating AMARE ([16]; 63 g ai/ha, rating scale 0-100 (0 no damage, 100 complete death)): 100
- phytotoxicity rating AMARE ([16]; 250 g ai/ha, rating scale 0-100): 100
- phytotoxicity rating CASOB ([17]; 63 g ai/ha): 100
- phytotoxicity rating CASOB ([17]; 250 g ai/ha): 100
- phytotoxicity rating ABUTH ([18]; 63 g ai/ha): 100
- phytotoxicity rating ABUTH ([18]; 250 g ai/ha): 100
- phytotoxicity rating CORN (crop damage) ([19]; 63 g ai/ha): 90
- phytotoxicity rating CORN (crop damage) ([19]; 250 g ai/ha): 100
- phytotoxicity rating RICE (crop damage) ([20]; 63 g ai/ha): 70
- phytotoxicity rating RICE (crop damage) ([20]; 250 g ai/ha): 80

SMILES: Cc1cccc(COC(=O)Nc2c(C)c(Cl)cc(F)c2-n2c(=O)cc(C(F)(F)F)n(C)c2=O)c1 [4-68]
- Pre-emerge Herbicidal Activity AMARE [1, 25]: 100
- Pre-emerge Herbicidal Activity AMARE [1, 26]: 100
- Pre-emerge Herbicidal Activity ECHCG [2, 25]: 60
- Pre-emerge Herbicidal Activity ECHCG [2, 26]: 98
- Pre-emerge Herbicidal Activity SETVI [3, 25]: 100
- Pre-emerge Herbicidal Activity SETVI [3, 26]: 100
- Pre-emerge Herbicidal Activity IPOHE [4, 25]: 40
- Pre-emerge Herbicidal Activity IPOHE [4, 26]: 100
- Pre-emerge Herbicidal Activity CHEAL [5, 25]: 100
- Pre-emerge Herbicidal Activity CHEAL [5, 26]: 100
- Pre-emerge Herbicidal Activity DIGSA [6, 25]: 100
- Pre-emerge Herbicidal Activity DIGSA [6, 26]: 100
- Pre-emerge Herbicidal Activity CASOB [7, 25]: 40
- Pre-emerge Herbicidal Activity CASOB [7, 26]: 100
- Pre-emerge Herbicidal Activity ABUTH [8, 25]: 100
- Pre-emerge Herbicidal Activity ABUTH [8, 26]: 100
- Pre-emerge Herbicidal Activity CORN [9, 27]: 45
- Pre-emerge Herbicidal Activity CORN [9, 28]: 80
- Pre-emerge Herbicidal Activity RICE [10, 27]: 50
- Pre-emerge Herbicidal Activity RICE [10, 28]: 90
- Post-emerge Herbicidal Activity ECHCG ([11]; 63 g ai/ha): 90
- Post-emerge Herbicidal Activity ECHCG ([11]; 250 g ai/ha): 98
- Post-emerge Herbicidal Activity SETVI ([12]; 63 g ai/ha): 100
- Post-emerge Herbicidal Activity SETVI ([12]; 250 g ai/ha): 100
- Post-emerge Herbicidal Activity IPOHE ([13]; 63 g ai/ha): 100
- Post-emerge Herbicidal Activity IPOHE ([13]; 250 g ai/ha): 100
- Post-emerge Herbicidal Activity CHEAL ([14]; 63 g ai/ha): 100
- Post-emerge Herbicidal Activity CHEAL ([14]; 250 g ai/ha): 100
- Post-emerge Herbicidal Activity DIGSA ([15]; 63 g ai/ha): 75
- Post-emerge Herbicidal Activity DIGSA ([15]; 250 g ai/ha): 90
- Post-emerge Herbicidal Activity AMARE ([16]; 63 g ai/ha): 100
- Post-emerge Herbicidal Activity AMARE ([16]; 250 g ai/ha): 100
- Post-emerge Herbicidal Activity CASOB ([17]; 63 g ai/ha): 100
- Post-emerge Herbicidal Activity CASOB ([17]; 250 g ai/ha): 100
- Post-emerge Herbicidal Activity ABUTH ([18]; 63 g ai/ha): 100
- Post-emerge Herbicidal Activity ABUTH ([18]; 250 g ai/ha): 100
- Post-emerge Herbicidal Activity CORN ([19]; 63 g ai/ha): 95
- Post-emerge Herbicidal Activity CORN ([19]; 250 g ai/ha): 100
- Post-emerge Herbicidal Activity RICE ([20]; 63 g ai/ha): 60
- Post-emerge Herbicidal Activity RICE ([20]; 250 g ai/ha): 80
